Results: patent US4638070A, “Heterocyclic amino-alcohol derivatives” (Continental Pharma, priority 1980, dated 1987)

Legend:
[1] = tested on: guinea-pig ileum (acetylcholine contractions); test: Antispasmodic activity in vitro, contractions caused by acetylcholine; details: added 15 minutes before spasm-producing agent
Procedure: (§1) (4) The antispasmodic activity was measured in vitro, on guinea-pig ileum, the contractions of which were caused by histammne (Hist.), acetylcholine (Achol) or barium chloride (BaCl2). The tested products were added to perfusion bath 15 minutes before the spasm-producing agents.
(§2) The dose is given in micograms (μg) per ml of bath causing complete spasm inhibition.

[2] = tested on: guinea-pig ileum (histamine contractions); test: Antispasmodic activity in vitro, contractions caused by histamine; details: added 15 minutes before spasm-producing agent
Procedure: as §1, §2

femoral artery = test: Vasodilator activity, femoral artery (technique of perfused paw); assay type: in vivo; set-up: key: O: no action; +: slight activity; ++: effect equal to half the effect of papaverine; +++: effect equal to that of papaverine; ++++: effect higher than that of papaverine; details: intra-arterial, 30 mg/kg, anaesthetized dog, vs papaverine at same dose
Procedure: (3) The vasodilator activity was measured at the level of femoral artery on anaesthetized dog (technique of perfused paw). The tested substances were given intra-arterially at the rate of 30 mg/kg. Results are expressed with respect to papaverine tested at the same dose.
++: effect equal to half the effect of papaverine.
+++: effect equal to that of papaverine.
++++: effect higher than that of papaverine.

[3] = tested on: unanaesthetized, hypertension-suffering rat; test: Antihypertensive activity (systolic arterial pressure), oral; assay type: in vivo; details: 60 mg/kg, hypertensive rat, 3 hours
Procedure: (2) The antihypertensive activity was measured on unanaesthetized, hypertension-suffering rat. The tested substances were orally given at a rate of 60 mg/kg. The systolic arterial pressure was measured every 30 minutes for 2 hours before and for 3 hours after the tested product was given. Results are expressed as follows: […]
O: no reduction of arterial pressure.
+: reduction lower than 10 mm Hg.
++: reduction of 10 to 20 mm Hg.
+++: reduction higher than 20 mm Hg.

[4] = Acute toxicity, oral, LD50 (Litchfield and Wilcoxon); details: mouse, in vivo, fasted male mice, confidence limits p=95% in brackets
Procedure: (1) The acute toxicity was determined on fasted male mice. The tested substances were orally administered and LD50 values (lethal dose for 50% of animals) were calculated according to the method of Litchfield and Wilcoxon (J. Pharmacol. exp. Ther. 96, 94-113, 1949). These LD50 values are given in mg/kg and also, when possible, with their confidence limits for p=95%.

| SMILES | ANTISPASMODIC ACTIVITY ACHOL (dose causing complete spasm inhibition) [1] | ANTISPASMODIC ACTIVITY HIST. (dose causing complete spasm inhibition) [2] | VASODILATOR ACTIVITY (femoral artery) | ANTIHYPERTENSIVE ACTIVITY [3] | LD50 [4] |
| --- | --- | --- | --- | --- | --- |
| CC(NCCCc1ccccc1)C(O)c1ccc2c(c1)CCC2 (stereo not drawn) [No 165] | 1.7 μg per ml | 1.7 μg per ml | +++ | +++ (reduction higher than 20 mm Hg) | 3800 mg/kg |
| CC(NCCOc1ccccc1)C(O)c1ccc2c(c1)CCCCS2 (stereo not drawn) [No 36] | 1.7 μg per ml | 3.3 μg per ml | +++ | +++ (reduction higher than 20 mm Hg) | > 4000 mg/kg |
| CC1CSc2ccc(C(O)C(C)NCCOc3ccccc3)cc2C1 (stereo not drawn) [No 49] | 1.7 μg per ml | 3.3 μg per ml | +++ | +++ (reduction higher than 20 mm Hg) | ~3700 mg/kg |
| C=CCCCCCCCCCNC(C)C(O)c1ccc2c(c1)CCS2 (stereo not drawn) [No 92] | 16.7 μg per ml | 16.7 μg per ml | – | ++ (reduction of 10 to 20 mm Hg) | > 4000 mg/kg |
| Cc1ccc(OCCNC(C)C(O)c2ccc3c(c2)CCCS3)cc1 (stereo not drawn) [No 54] | 3.3 μg per ml | 3.3 μg per ml | +++ | ++ (reduction of 10 to 20 mm Hg) | > 4000 mg/kg |
| CCCCCCCCCCCCCCNC(C)C(O)c1ccc2c(c1)CCCS2 (stereo not drawn) [No 76] | – | – | – | + (reduction lower than 10 mm Hg) | > 4000 mg/kg |
| CC(NCCCOc1ccccc1)C(O)c1ccc2c(c1)CCCS2 (stereo not drawn) [No 75] | 1.7 μg per ml | 0.8 μg per ml | +++ | +++ (reduction higher than 20 mm Hg) | > 4000 mg/kg |
| CCC(=O)OC(c1ccc2c(c1)CCS2)C(C)NCCCCc1ccccc1 (stereo not drawn) [No 118] | 1.7 μg per ml | 0.8 μg per ml | ++ | +++ (reduction higher than 20 mm Hg) | 2020 mg/kg |
| COCCOCCCNC(C)C(O)c1ccc2c(c1)CCS2 (stereo not drawn) [No 129] | – | – | – | +++ (reduction higher than 20 mm Hg) | 250 mg/kg |
| CC1Cc2cc(C(O)C(C)NCCOCc3ccccc3)ccc2S1 (stereo not drawn) [No 120] | – | 0.8 μg per ml | +++ | ++ (reduction of 10 to 20 mm Hg) | ~1450 mg/kg |
| CC(NCCCCc1ccccc1)C(OC(=O)C1CCCC1)c1ccc2c(c1)CCS2 (stereo not drawn) [No 137] | – | – | – | +++ (reduction higher than 20 mm Hg) | ~1750 mg/kg |
| CCC(NCCOc1ccccc1)C(O)c1ccc2c(c1)CCS2 (stereo not drawn) [No 126] | – | – | – | +++ (reduction higher than 20 mm Hg) | > 4000 mg/kg |
| CC(NCCOc1ccccc1)C(O)c1ccc2c(c1)SCCO2 (stereo not drawn) [No 123] | – | 0.8 μg per ml | ++++ | +++ (reduction higher than 20 mm Hg) | > 4000 mg/kg |
| CCCCCCCCNC(C)C(OC(=O)CCC)c1ccc2c(c1)CCCS2 (stereo not drawn) [No 134] | – | – | – | +++ (reduction higher than 20 mm Hg) | > 4000 mg/kg |
| CCCCCCCCNC(C)C(OC(=O)CC)c1ccc2c(c1)CCCS2 (stereo not drawn) [No 131] | – | – | – | + (reduction lower than 10 mm Hg) | > 4000 mg/kg |
